What all share (format): biochemical
One test addresses T1, human Lp-PLA2 (Homo sapiens, UniProt Q13093).
T1 construct: purchased Cayman Chemical
T1 sequence (Q13093 22-441): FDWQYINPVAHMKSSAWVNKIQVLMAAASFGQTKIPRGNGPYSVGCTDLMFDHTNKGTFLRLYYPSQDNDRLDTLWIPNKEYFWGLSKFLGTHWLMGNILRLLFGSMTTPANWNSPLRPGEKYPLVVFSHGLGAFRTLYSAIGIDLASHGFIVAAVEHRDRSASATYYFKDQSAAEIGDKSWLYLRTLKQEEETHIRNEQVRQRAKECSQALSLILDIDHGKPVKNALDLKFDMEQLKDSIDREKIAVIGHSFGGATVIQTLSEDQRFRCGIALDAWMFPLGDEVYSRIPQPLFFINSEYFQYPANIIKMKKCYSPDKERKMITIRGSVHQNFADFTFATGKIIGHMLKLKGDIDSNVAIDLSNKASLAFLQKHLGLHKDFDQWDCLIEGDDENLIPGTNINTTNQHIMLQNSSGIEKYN
The experiment in a line: Lp-PLA2 inhibition assay (UV-spectrometry, 2-thio-PAF/DTNB, 96-well). As for the experimental part: The ability of synthesized indolizine derivatives (6) to inhibit (IC50 values, μM) human Lp-PLA2 (Cayman Chemical, Ann Arbor, Mich.) was determined based on a UV-spectrometry assay using 96-well plate format. […] The concentration of the test compound causing 50% inhibition (IC50, μM) was determined from the concentration-inhibition response curve (duplicate to quadruplicate determinations).
(§1) Phospholipase inhibition by synthesized compounds toward human Lp-PLA2, sPLA2 IIA and IV (Cayman Chemical Company, Ann Arbor, Mich.) are evaluated using a 96-well plate format. In this assay, different concentrations of test compounds (0.001-30 μM) are incubated with the PLA2 enzymes. The substrate hydrolysis by PLA2 is monitored by UV-spectroscopy. […] The concentration of the test compound causing 50% inhibition (IC50, μM) is determined from the concentration-inhibition response curve. Isothermal calorimetry (ITC) experiments using will be carried out to determine binding constant (KB) and dissociation constant (KD) of Lp-PLA2 inhibitors (Ann. Rev. Biophy. 37, 135-151, 2008; J. Am. Chem. Soc. 125, 10570-10579, 2003)]. Reference compounds (eg: varespladib and darapladib) will be used for comparison.

The next test has as its target T2, sPLA2 IIA (Homo sapiens, UniProt P14555).
T2 construct: purchased Cayman Chemical Company
T2 sequence (P14555 21-144): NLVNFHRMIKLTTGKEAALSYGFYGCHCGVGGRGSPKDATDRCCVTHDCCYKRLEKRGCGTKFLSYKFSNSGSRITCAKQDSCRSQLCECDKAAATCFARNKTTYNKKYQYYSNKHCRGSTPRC
The experiment in a line: Phospholipase A2 (PLA2) inhibition assay, sPLA2 IIA. As to conditions: Table 2; for Selectivity Index (sPLA2/Lp-PLA2): ratio of sPLA2 IIA IC50 to Lp-PLA2 IC50. The method, then:
as §1

A further test addresses T3, human COX-1 (Homo sapiens, UniProt P23219).
T3 construct: purchased Cayman Chemical
The experiment in a line: Cyclooxygenase (COX) inhibition assay, COX-1 (enzyme immunoassay). To be noted: Table 2. As for the experimental part:
(§2) The ability of the test compounds to inhibit (IC50 values, μM) human COX-1 and COX-2 (Cayman Chemical, Ann Arbor) is determined PGF2α, produced from COX reaction is measured by enzyme immunoassay. Either COX-1 or COX-2 enzyme in the presence of heme and various concentrations of test compound solutions (0.01-10 μM) is incubated after which substrate arachidonic acid is added. The concentration of the test compound causing 50% inhibition (IC50, μM) is calculated from the concentration-inhibition response curve.

A further test deals with T4, human COX-2 (Homo sapiens, UniProt P35354).
T4 construct: purchased Cayman Chemical
T4 sequence (P35354 18-604): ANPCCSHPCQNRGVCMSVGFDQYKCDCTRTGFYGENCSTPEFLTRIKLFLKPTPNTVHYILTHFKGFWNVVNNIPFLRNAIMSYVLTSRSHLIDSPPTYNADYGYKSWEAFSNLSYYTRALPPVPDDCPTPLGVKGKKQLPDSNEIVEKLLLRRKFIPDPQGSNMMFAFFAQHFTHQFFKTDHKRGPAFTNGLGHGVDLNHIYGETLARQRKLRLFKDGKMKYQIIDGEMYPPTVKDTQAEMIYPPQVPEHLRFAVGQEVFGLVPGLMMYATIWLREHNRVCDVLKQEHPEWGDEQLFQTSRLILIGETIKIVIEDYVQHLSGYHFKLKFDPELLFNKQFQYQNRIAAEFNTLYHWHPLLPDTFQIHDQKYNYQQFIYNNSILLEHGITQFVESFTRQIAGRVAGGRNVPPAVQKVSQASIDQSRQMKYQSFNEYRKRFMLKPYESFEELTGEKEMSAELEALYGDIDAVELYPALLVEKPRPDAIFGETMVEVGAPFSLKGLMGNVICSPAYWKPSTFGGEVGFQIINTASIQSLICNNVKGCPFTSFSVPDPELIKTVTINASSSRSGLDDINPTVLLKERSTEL
The experiment in a line: Cyclooxygenase (COX) inhibition assay, COX-2 (enzyme immunoassay). To be noted: Table 2. The method, then: as §2

[1] abbreviates: Table 1, substrate 2-thio-PAF, DTNB, 0.1M Tris-HCl pH 7.2, read-out: Lp-PLA2 (IC50).
[2] abbreviates: Table 2, read-out: Lp-PLA2 Inhibition (IC50).

The structures appear in SMILES notation. Where two headings read alike, the source gives them in different places.

T3 sequence (P23219 24-599): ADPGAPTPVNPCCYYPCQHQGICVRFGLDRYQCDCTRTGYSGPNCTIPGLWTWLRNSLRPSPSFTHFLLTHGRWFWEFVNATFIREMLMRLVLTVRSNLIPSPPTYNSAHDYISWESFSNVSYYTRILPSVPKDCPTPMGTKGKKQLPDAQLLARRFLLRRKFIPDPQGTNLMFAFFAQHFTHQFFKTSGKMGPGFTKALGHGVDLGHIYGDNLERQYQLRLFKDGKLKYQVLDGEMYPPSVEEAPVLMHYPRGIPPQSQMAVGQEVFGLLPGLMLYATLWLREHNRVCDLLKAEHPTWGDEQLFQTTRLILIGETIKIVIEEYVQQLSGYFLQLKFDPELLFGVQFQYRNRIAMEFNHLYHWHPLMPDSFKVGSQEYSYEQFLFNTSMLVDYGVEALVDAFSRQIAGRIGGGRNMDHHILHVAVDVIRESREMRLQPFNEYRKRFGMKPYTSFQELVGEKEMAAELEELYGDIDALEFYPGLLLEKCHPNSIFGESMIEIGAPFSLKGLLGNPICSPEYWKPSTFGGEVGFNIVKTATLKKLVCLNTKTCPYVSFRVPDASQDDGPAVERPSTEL

Turning to `CC(=O)c1c(-c2ccccc2)c(C(=O)c2ccc(F)cc2)c2ccccn12` [Cmpd 8, 1-[1-(4-fluorobenzoyl)-2-phenylindolizin-3-yl]ethanone], the IC50 at human Lp-PLA2 (setting [1]) was 0.25 µM; on human Lp-PLA2 (setting [2]) it was 0.57 µM; at sPLA2 IIA it was more than 10 µM; at human COX-1 it was more than 10 µM; at human COX-2, more than 10 µM. The “Selectivity Index (sPLA2/Lp-PLA2)” value at sPLA2 IIA is reported as more than 17.5.
With `CC(=O)c1c(-c2ccccc2)c(C(=O)c2ccccc2)c2ccccn12` [Cmpd 1], the 50% inhibitory concentration (IC50) at human Lp-PLA2 (setting [1]) was 0.51 µM; on human Lp-PLA2 (setting [2]), 0.51 µM; on sPLA2 IIA it was more than 10 µM; against human COX-1 it was more than 10 µM; against human COX-2, more than 10 µM. At sPLA2 IIA, the “Selectivity Index (sPLA2/Lp-PLA2)” value was more than 19.6.
As for `CCCCc1ccc(C(=O)c2c(-c3ccccc3)c(C(C)=O)n3ccccc23)cc1` [Cmpd 4], the IC50 is 0.29 µM at human Lp-PLA2 (setting [1]); 0.3 µM on human Lp-PLA2 (setting [2]); more than 10 µM on sPLA2 IIA; more than 10 µM on human COX-1; more than 10 µM against human COX-2. The “Selectivity Index (sPLA2/Lp-PLA2)” value at sPLA2 IIA is more than 33.3.
`CC(=O)c1c(-c2ccccc2)c(C(=O)c2ccc(Cl)cc2)c2ccccn12` [Cmpd 10, 1-[1-(4-chlorobenzoyl)-2-phenylindolizin-3-yl]ethanone]: the IC50 on human Lp-PLA2 (setting [1]) is 0.7 µM; at human Lp-PLA2 (setting [2]), 0.94 µM; at sPLA2 IIA it was more than 10 µM; against human COX-1, more than 10 µM; against human COX-2 it was more than 10 µM. Moreover, at sPLA2 IIA, the “Selectivity Index (sPLA2/Lp-PLA2)” value is reported as more than 10.6.
As for `CC(=O)c1c(-c2ccccc2)c(C(=O)c2ccc(F)c(F)c2)c2ccccn12` [Cmpd 12, 1-[1-(3,4-difluorobenzoyl)-2-phenylindolizin-3-yl]ethanone], at human Lp-PLA2 (setting [1]), the IC50 was 0.79 µM.
The same measure, in the same setting: under `CC(=O)c1c(-c2ccc(C)cc2)c(C(=O)c2ccccc2)c2ccccn12` [Cmpd 11, 1-[1-benzoyl-2-p-tolylindolizin-3-yl]ethanone] stands 0.02 µM.
With `CC(=O)c1c(-c2ccccc2)c(C(=O)c2ccc(C(F)(F)F)cc2)c2ccccn12` [Cmpd 7, 1-[2-phenyl-1-(4-(trifluoromethyl)benzoyl)indolizin-3-yl]ethanone], the IC50 at human Lp-PLA2 (setting [1]) is 0.06 µM; on human Lp-PLA2 (setting [2]), 0.06 µM; against sPLA2 IIA, more than 10 µM; at human COX-1 it was more than 10 µM; on human COX-2 it was more than 10 µM. In addition, the “Selectivity Index (sPLA2/Lp-PLA2)” value on sPLA2 IIA is recorded as more than 166.6.
With `CSc1ccc(C(=O)c2c(-c3ccccc3)c(C(C)=O)n3ccccc23)cc1` [Cmpd 6, 1-[1-(4-(methylthio)benzoyl)-2-phenylindolizin-3-yl]ethanone], the IC50 on human Lp-PLA2 (setting [1]) was 0.24 µM; on human Lp-PLA2 (setting [2]), 0.25 µM; against sPLA2 IIA, more than 10 µM; at human COX-1, more than 10 µM; on human COX-2, more than 10 µM. For the same compound, the “Selectivity Index (sPLA2/Lp-PLA2)” value on sPLA2 IIA is listed as more than 40.
With `CC(=O)c1c(-c2ccccc2)c(C(=O)c2ccc(C(C)C)cc2)c2ccccn12` [Cmpd 3, 1-[1-(4-isopropylbenzoyl)-2-phenylindolizin-3-yl]ethanone], the IC50 is 0.8 µM at human Lp-PLA2 (setting [1]); 0.8 µM on human Lp-PLA2 (setting [2]); more than 10 µM against sPLA2 IIA; more than 10 µM against human COX-1; more than 10 µM against human COX-2. In addition, the “Selectivity Index (sPLA2/Lp-PLA2)” value at sPLA2 IIA is on record as more than 12.5.
For `COc1ccc(C(=O)c2c(-c3ccccc3)c(C(C)=O)n3ccccc23)cc1` [Cmpd 5, 1-[1-(4-methoxybenzoyl)-2-phenylindolizin-3-yl]ethanone], the IC50 on human Lp-PLA2 (setting [1]) is 0.76 µM; at human Lp-PLA2 (setting [2]) it was 0.76 µM; on sPLA2 IIA it was more than 10 µM; on human COX-1 it was more than 10 µM; at human COX-2, more than 10 µM. For the same compound, the “Selectivity Index (sPLA2/Lp-PLA2)” value on sPLA2 IIA is listed as more than 13.1.
Take `CC(=O)c1c(-c2ccccc2)c(C(=O)c2ccc(C)cc2)c2ccccn12` [Cmpd 2, 1-[1-(4-methylbenzoyl)-2-phenylindolizin-3-yl]ethanone]: the IC50 was 0.03 µM on human Lp-PLA2 (setting [1]); 0.02 µM on human Lp-PLA2 (setting [2]); more than 10 µM on sPLA2 IIA; more than 10 µM on human COX-1; more than 10 µM at human COX-2. The “Selectivity Index (sPLA2/Lp-PLA2)” value on sPLA2 IIA is more than 500.
Turning to `CC(=O)c1c(-c2ccccc2)c(C(=O)c2ccc(Br)cc2)c2ccccn12` [Cmpd 9, 1-[1-(4-bromobenzoyl)-2-phenylindolizin-3-yl]ethanone], the IC50 at human Lp-PLA2 (setting [1]) was 0.94 µM; at human Lp-PLA2 (setting [2]), 0.7 µM; on sPLA2 IIA, more than 10 µM; against human COX-1 it was more than 10 µM; against human COX-2, more than 10 µM. At sPLA2 IIA, the “Selectivity Index (sPLA2/Lp-PLA2)” value is more than 14.2.

Usually IC50 stands for the midpoint of a concentration-inhibition curve.
